Patent publication US20150105252A1, “SUBSTITUTED PYRAZOLES AS HERBICIDES” (E I DU PONT DE NEMOURS AND COMPANY, priority 2013, published 2015)

What was measured:
blackgrass = experiment: Test C postemergence; type: in vivo, Alopecurus myosuroides
Description: (§1) Seeds of plant species selected from blackgrass (Alopecurus myosuroides), ryegrass, Italian (Italian ryegrass, Lolium multiflorum), wheat (winter wheat, Triticum aestivum), galium (catchweed bedstraw, Galium aparine), corn (Zea mays), crabgrass, large (large crabgrass, Digitaria sanguinalis), foxtail, giant (giant foxtail, Setaria faberii), johnsongrass (Sorghum halepense), lambsquarters (Chenopodium album), morningglory (Ipomoea coccinea), nutsedge, yellow (yellow nutsedge, Cyperus esculentus), pigweed (redroot pigweed, Amaranthus retroflexus), ragweed (common ragweed, Ambrosia elation), soybean (Glycine max), barnyardgrass (Echinochloa crus-galli), oilseed rape (Brassica napus), waterhemp (common waterhemp, Amaranthus rudis), oat, wild (wild oat, Avena fatua), kochia (Kochia scoparia), Surinam grass (Brachiaria decumbens), foxtail, green (green foxtail, Setaria viridis), goosegrass (Eleusine indica), bromegrass, downy (downy bromegrass, Bromus tectorum), nightshade (eastern black nightshade, Solanum ptycanthum), cocklebur (common cocklebur, Xanthium strumarium), cupgrass, woolly (woolly cupgrass, Eriochloa villosa), bermudagrass (Cynodon dactylon), sunflower, (common oilseed sunflower, Helianthus annuus), Russian thistle (Salsola kali), and velvetleaf (Abutilon theophrasti) were planted into a blend of loam soil and sand and treated preemergence with test chemicals formulated in a non-phytotoxic solvent mixture which included a surfactant.
(§2) At the same time, plants selected from these crop and weed species and also chickweed (common chickweed, Stellaria media), canarygrass (littleseed canarygrass, Phalaris minor), and deadnettle (henbit deadnettle, Lamium amplexicaule), were planted in pots containing Redi-Earth® planting medium (Scotts Company, 14111 Scottslawn Road, Marysville, Ohio 43041) comprising spaghnum peat moss, vermiculite, wetting agent and starter nutrients and treated with postemergence applications of test chemicals formulated in the same manner. Plants ranged in height from 2 to 18 cm (1- to 4-leaf stage) for postemergence treatments. Treated plants and controls were maintained in a greenhouse for 13 to 15 days, after which time all species were compared to controls and visually evaluated. Plant response ratings, summarized in Table C, are based on a scale of 0 to 100 where 0 is no effect and 100 is complete control. A dash (-) response means no test result.

ryegrass, Italian = experiment: Test C postemergence; type: in vivo, Lolium multiflorum
Description: as §1, §2

galium = experiment: Test C postemergence; type: in vivo, Galium aparine
Description: as §1, §2

crabgrass, large = experiment: Test C postemergence; type: in vivo, Digitaria sanguinalis
Description: as §1, §2

foxtail, giant = experiment: Test C postemergence; type: in vivo, Setaria faberii
Description: as §1, §2

lambsquarters [1] = experiment: Test C postemergence; type: in vivo, Chenopodium album; settings: postemergence
Description: as §1, §2

morningglory = experiment: Test C postemergence; type: in vivo, Ipomoea coccinea
Description: as §1, §2

nutsedge, yellow = experiment: Test C postemergence; type: in vivo, Cyperus esculentus
Description: as §1, §2

barnyardgrass = experiment: Test C postemergence; type: in vivo, Echinochloa crus-galli
Description: as §1, §2

oilseed rape = experiment: Test C postemergence; type: in vivo, Brassica napus
Description: as §1, §2

waterhemp = experiment: Test C postemergence; type: in vivo, Amaranthus rudis; settings: for Waterhemp plant response rating: scale 0 to 100
Description: as §1, §2

oat, wild = experiment: Test C postemergence; type: in vivo, Avena fatua
Description: as §1, §2

kochia = experiment: Test C postemergence; type: in vivo, Kochia scoparia
Description: as §1, §2

velvetleaf = experiment: Test C postemergence; type: in vivo, Abutilon theophrasti; settings: for Velvetleaf plant response rating: scale 0 to 100
Description: as §1, §2

lambsquarters [2] = experiment: Test C preemergence; type: in vivo, Chenopodium album
Description: as §1, §2

[3] = Postemergence, 31 g ai/ha, visually evaluated after 13 to 15 days
[4] = postemergence, 62 g ai/ha, scale 0 to 100
[5] = postemergence, 250 g ai/ha, scale 0 to 100 (0 no effect, 100 complete control)
[6] = postemergence, 125 g ai/ha, scale 0 to 100, 0 no effect, 100 complete control
[7] = preemergence, 62 g ai/ha, scale 0 to 100 (0 no effect, 100 complete control), 13 to 15 days
[8] = preemergence, 125 g ai/ha, 13 to 15 days, scale 0 to 100, 0 = no effect, 100 = complete control
[9] = preemergence, 250 g ai/ha, scale 0 to 100, 0 is no effect, 100 is complete control

## CCCc1cc(C(=O)NCC(F)(F)F)nn1Cc1cc(C(F)(F)F)nn1C [Compound 138]
blackgrass; [3]
  Plant response rating (scale of 0 to 100 where 0 is no effect and 100 is complete control), Blackgrass: 5
blackgrass; [4]
  Blackgrass plant response rating: 10
blackgrass; [5]
  Plant response rating, Blackgrass: 50
blackgrass; [6]
  Plant response rating, Blackgrass: 20
ryegrass, Italian; [3]
  Plant response rating (scale of 0 to 100 where 0 is no effect and 100 is complete control), Ryegrass, Italian: 5
ryegrass, Italian; [4]
  Ryegrass, Italian plant response rating: 15
ryegrass, Italian; [5]
  Plant response rating, Ryegrass, Italian: 10
ryegrass, Italian; [6]
  Plant response rating, Ryegrass, Italian: 5
galium; [3]
  Plant response rating (scale of 0 to 100 where 0 is no effect and 100 is complete control), Galium: 65
galium; [4]
  Galium plant response rating: 70
galium; [5]
  Plant response rating, Galium: 80
galium; [6]
  Plant response rating, Galium: 75
crabgrass, large; [3]
  Plant response rating (scale of 0 to 100 where 0 is no effect and 100 is complete control), Crabgrass, Large: 5
crabgrass, large; [4]
  Crabgrass, Large plant response rating: 5
crabgrass, large; [5]
  Plant response rating, Crabgrass, Large: 70
crabgrass, large; [6]
  Plant response rating, Crabgrass, Large: 30
foxtail, giant; [3]
  Plant response rating (scale of 0 to 100 where 0 is no effect and 100 is complete control), Foxtail, Giant: 5
foxtail, giant; [4]
  Foxtail, Giant plant response rating: 5
foxtail, giant; [5]
  Plant response rating, Foxtail, Giant: 50
foxtail, giant; [6]
  Plant response rating, Foxtail, Giant: 10
Lambsquarters [1]; 62 g ai/ha, scale 0 to 100
  Lambsquarters plant response rating: 40
Lambsquarters [1]; 250 g ai/ha, scale 0 to 100 (0 no effect, 100 complete control)
  Plant response rating, Lambsquarters: 95
Lambsquarters [1]; 125 g ai/ha, scale 0 to 100, 0 no effect, 100 complete control
  Plant response rating, Lambsquarters: 75
morningglory; [3]
  Plant response rating (scale of 0 to 100 where 0 is no effect and 100 is complete control), Morningglory: 60
morningglory; [4]
  Morningglory plant response rating: 85
morningglory; [5]
  Plant response rating, Morningglory: 95
morningglory; [6]
  Plant response rating, Morningglory: 85
nutsedge, yellow; [3]
  Plant response rating (scale of 0 to 100 where 0 is no effect and 100 is complete control), Nutsedge, Yellow: 0
nutsedge, yellow; [4]
  Nutsedge, Yellow plant response rating: 0
nutsedge, yellow; [5]
  Plant response rating, Nutsedge, Yellow: 5
nutsedge, yellow; [6]
  Plant response rating, Nutsedge, Yellow: 5
barnyardgrass; [3]
  Plant response rating (scale of 0 to 100 where 0 is no effect and 100 is complete control), Barnyardgrass: 10
barnyardgrass; [4]
  Barnyardgrass plant response rating: 25
barnyardgrass; [5]
  Plant response rating, Barnyardgrass: 65
barnyardgrass; [6]
  Plant response rating, Barnyardgrass: 20
Oilseed rape; [3]
  Plant response rating (scale of 0 to 100 where 0 is no effect and 100 is complete control), Oilseed Rape: 55
Oilseed rape; [4]
  Oilseed Rape plant response rating: 60
Oilseed rape; [5]
  Plant response rating, Oilseed Rape: 60
Oilseed rape; [6]
  Plant response rating, Oilseed Rape: 80
waterhemp; [3]
  Plant response rating (scale of 0 to 100 where 0 is no effect and 100 is complete control), Waterhemp: 75
waterhemp; postemergence, 62 g ai/ha
  Waterhemp plant response rating: 70
waterhemp; [5]
  Plant response rating, Waterhemp: 95
waterhemp; postemergence
  Waterhemp plant response rating: 100
oat, wild; [3]
  Plant response rating (scale of 0 to 100 where 0 is no effect and 100 is complete control), Oat, Wild: 10
oat, wild; [4]
  Oat, Wild plant response rating: 20
oat, wild; [5]
  Plant response rating, Oat, Wild: 30
oat, wild; [6]
  Plant response rating, Oat, Wild: 10
kochia; [3]
  Plant response rating (scale of 0 to 100 where 0 is no effect and 100 is complete control), Kochia: 100
kochia; [4]
  Kochia plant response rating: 90
kochia; [5]
  Plant response rating, Kochia: 90
kochia; [6]
  Plant response rating, Kochia: 90
velvetleaf; [3]
  Plant response rating (scale of 0 to 100 where 0 is no effect and 100 is complete control), Velvetleaf: 30
velvetleaf; postemergence, 62 g ai/ha
  Velvetleaf plant response rating: 40
velvetleaf; [5]
  Plant response rating, Velvetleaf: 50
velvetleaf; postemergence
  Velvetleaf plant response rating: 25

## CCNC(=O)c1cc(CCCl)n(Cc2ccnc(C(F)(F)F)c2)n1 [Compound 179]
Lambsquarters [2]; preemergence, 31 g ai/ha, visual rating, scale 0 to 100 (0 no effect, 100 complete control), 13 to 15 days
  Lambsquarters plant response rating: 90
Lambsquarters [2]; [7]
  Lambsquarters plant response rating: 100
Lambsquarters [2]; [8]
  Plant response rating, Lambsquarters: 100
Lambsquarters [2]; [9]
  Lambsquarters plant response rating: 100

## CCc1cc(C(=O)NC2CC2)nn1Cc1cc(C(F)(F)C(F)(F)F)nn1C [Compound 226]
Lambsquarters [2]; Preemergence, rate head not shown (block before 16 g ai/ha), scale 0 to 100
  Plant response rating, Lambsquarters: 100
Lambsquarters [2]; [7]
  Lambsquarters plant response rating: 100
Lambsquarters [2]; [8]
  Plant response rating, Lambsquarters: 100
Lambsquarters [2]; [9]
  Lambsquarters plant response rating: 100
